The values below come from the METLIN SMRT retention time set (Domingo-Almenara et al. 2019).

The structures appear in SMILES notation.

The series in a line: gradient 5% acetonitrile 3 min, to 50% in 2 min, to 85% in 15 min, held 3 min, 100 µL/min. As to conditions: column: Zorbax Extend-C18 2.1 x 50 mm; eluents: water / acetonitrile, 0.1% formic acid. The procedure, abridged: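 Retention times come from adduct peaks that were picked computationally and then checked by hand. The standards, pure and pooled in mixtures of ~100 molecules, were run on a Zorbax Extend-C18 column (2.1 × 50 mm, 1.8 μm) at 100 μL/min with water and acetonitrile, each with 0.1% formic acid. Detection was by quadrupole time-of-flight mass spectrometry in positive and negative ionization mode, with a dead volume of 40 μL and a dwell volume of 900 μL.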
Compound `CCc1ccc(Oc2cc(N3CCC(C(=O)NCCCc4ccccc4)CC3)ncn2)cc1` returned an RP-LC retention time of 1080 s.

In turn, `Cc1noc(C)c1S(=O)(=O)N1CCC(CCOc2ccccc2)C1` (centres undefined) returned an RP-LC retention time of 1080 s. The same measure for `CCOc1ccc(NC(=O)C2CCN(S(=O)(=O)c3cn(C(C)C)cn3)CC2)cc1`: 775 s; for `O=C(Nc1nc2c(s1)CN(C(=O)c1cc(C3CC3)on1)CC2)c1ccco1`: 710 s. The same measure for `CCOc1ccc(/C=C/C(=O)Nc2nc(-c3ccc4c(c3)N(CC)C(=O)CO4)cs2)cc1OC`: 1020 s; for `OC(COc1ccc(F)cc1)CN1CCN(c2cccc(Cl)c2)CC1` (centres undefined): 734 s. The same measure for `CN(C)c1cccc(C(=O)Nc2cc(-c3cccnc3)no2)c1`: 728 s; for `Cc1csc(NC(=O)Cc2cc(-c3cccs3)on2)n1`: 763 s; for `O=C(Nc1ncn[nH]1)C1CCC1`: 546 s. `CC(=O)c1ccc(NC(=O)CNS(=O)(=O)c2ccc(C(C)(C)C)cc2)cc1` gave an RP-LC retention time of 663 s. The compound `CC(C)NC(=O)c1cc(=O)[nH]c2c(Cl)cccc12` registered an RP-LC retention time of 737 s.

`COc1ccc(-n2ccc(=O)c(-c3nc(-c4ccc(Cl)c(F)c4)no3)n2)cc1` displayed an RP-LC retention time of 993 s. The same measure for `Cc1cnc(-c2ccncc2)n1C1CCN(C(=O)C2(C)CCCCC2)C1` (centres undefined): 626 s; for `Cc1ccc(N2C(=O)C3N=NN(Cc4nc(-c5cccc(C(F)(F)F)c5)no4)C3C2=O)cc1Cl` (centres undefined): 1180 s; for `O=C(CCc1nc2sc3c(c2c(=O)[nH]1)CCCCC3)N1CCN(C2CCCCC2)CC1`: 610 s.

Consider `O=C(NC1CCCCC1)C1(CCO)CC12CCN(c1ncccn1)CC2` (centres undefined), for which the RP-LC retention time worked out at 651 s. On to `CCOC(=O)c1ccc(NS(=O)(=O)c2cc3n(c2)CCN(C(C)C)C3=O)cc1`, for which the RP-LC retention time was 777 s. The same measure for `Cc1cnc(C2CN(S(=O)(=O)c3cccc(F)c3)C2)n1CC1CC1`: 656 s; for `O=C(CN1C(=O)C(C(=O)N2CCCCCC2)Sc2ccccc21)N1CCN(c2ccccn2)CC1` (centres undefined): 650 s. For `Cc1ccccc1-c1nc(-c2cccc(-c3ccnn3C)c2)no1`, the RP-LC retention time stood at 1220 s. As for `CCN1C(=O)c2cc(S(=O)(=O)Nc3cccc(Cl)c3)ccc2Oc2cccnc21`, the RP-LC retention time was found to be 1060 s.

For `O=C(Cc1ccc(F)cc1)Nc1cc(-c2cccnc2)no1`, the RP-LC retention time is 730 s. The same measure for `Cc1noc(C2CN(C(=O)Nc3ccc(F)c(Cl)c3)CC23CCOCC3)n1` (centres undefined): 783 s. The same measure for `CCOc1ccc(CNC(=O)C2CCCN(S(=O)(=O)c3ccc4c(ccn4CC)c3)C2)cc1` (centres undefined): 1040 s. The same measure for `O=C(CC1CCCCC1)N1CCCC(COc2ccc(C(=O)N3CCOCC3)cc2)C1` (centres undefined): 856 s; for `COc1ccc(CCN2CN=C(Nc3nc(C)c4cc(C)ccc4n3)NC2)cc1OC`: 722 s; for `CCc1noc(NC(C)=O)c1-c1ccc(C)c(S(=O)(=O)N2CCN(c3ccc(OC)cc3)CC2)c1`: 919 s. As to `COc1ccc(OCc2nc(-c3ccc(-c4csc(C)n4)cc3)no2)cc1`, the RP-LC retention time amounted to 1170 s. Consider `CC(C)C(=O)NCc1cnn(-c2ccc(C(=O)Nc3ccc4c(c3)OCCO4)cc2)c1`, for which the RP-LC retention time was found to be 733 s. The same measure for `O=C(COc1ccccc1)NCc1c(-c2ccccc2)nc2n1CCS2`: 678 s. The same measure for `Cc1ccc(CNC(=O)c2ccc3ncnc(N4CCCC4)c3c2)cc1`: 656 s. The compound `Cc1nc(-c2csc(S(=O)(=O)N3CCCC(C(=O)Nc4ccc(F)cc4)C3)c2)no1` (centres undefined) showed an RP-LC retention time of 946 s. `Cc1ccc2c(c1)C(=O)NC1(CCN(C(=O)c3ccc(C(F)(F)F)cc3)CC1)N2C` gave an RP-LC retention time of 871 s.

With `O=C(NC1CCN(c2nnc3ccccn23)CC1)c1cc2c(s1)CCCC2`, the RP-LC retention time came out at 742 s.

As to `Cc1nn(C(C)C)c(C)c1-c1cc(C(=O)O)[nH]n1`, the RP-LC retention time is 617 s. The same measure for `O=C(CSc1ccc(N2CCCC(C(=O)NC3CC3)C2)nn1)Nc1ccc(Br)cc1` (centres undefined): 691 s. The same measure for `Cn1nc(C(F)(F)F)cc1C(=O)N1CCCC1c1cccc(F)c1` (centres undefined): 976 s; for `Cc1ccc2c(c1)N(S(C)(=O)=O)CCC(C(=O)Nc1ccc(Cl)cc1)O2` (centres undefined): 1020 s; for `CCOC(=O)c1c(C)oc2nc(C)nc(N(C)Cc3ccccc3)c12`: 1150 s. With `Cn1cc(-c2nc(C(=O)N3CCN(c4ccccc4)CC3)cs2)c2cccnc21`, the RP-LC retention time amounted to 911 s. With `C=CCN1C(=O)COc2ccc(-c3nc(NC(=O)c4cc(OC)cc(OC)c4)sc3C)cc21`, the RP-LC retention time turned out to be 1090 s. In turn, `COc1ccc(-c2nc3ccccn3c2Nc2ccc(C)cc2)cc1` registered an RP-LC retention time of 701 s. In the case of `O=c1c2nnc(SCc3ccccc3)n2ccn1-c1ccc(Br)cc1`, the RP-LC retention time was 812 s. The same measure for `CCCn1nnc2cc(S(=O)(=O)N3CCCC(C(=O)N4CCN(c5ccccn5)CC4)C3)ccc21` (centres undefined): 652 s; for `Cc1ccccc1Nc1c(-c2ccc(N3CCOCC3)cc2)nc2cnccn12`: 822 s; for `COc1ccc(-c2cn3c(CC(=O)NCc4ccc(N(C)C)cc4)csc3n2)cc1OC`: 588 s. The same measure for `Cc1nnsc1C(=O)Nc1nnc(Cc2ccc3c(c2)OCO3)o1`: 740 s.

The compound `O=C(Cn1cnc2ccccc2c1=O)N1CCC(c2nnc(-c3ccco3)o2)CC1` showed an RP-LC retention time of 621 s.

As for `O=C(Nc1ccc(SCc2nnc(-c3ccccc3)o2)cc1)c1cccs1`, the RP-LC retention time stood at 968 s. For the compound `CC(C)c1nnc(-c2coc(S(=O)(=O)N3CCCCC3C)c2)o1` (centres undefined), the RP-LC retention time stood at 904 s.

In turn, `CCC(C(=O)NCCCN1CCN(CC)CC1)n1c2ccccc2c2cnn(C)c(=O)c21` (centres undefined) had an RP-LC retention time of 594 s. Regarding `Cc1cccc(CC(=O)N2CCCn3cc(-c4cccc(C#N)c4)nc32)c1`, the RP-LC retention time was found to be 782 s. Turning to `COC(=O)c1cnc2nc(C)ccc2c1Nc1ccc(C)cc1Cl`, the RP-LC retention time turned out to be 752 s. In turn, `CC1(C(=O)NCc2ccccc2)CCCN(S(=O)(=O)c2ccccc2Cl)C1` (centres undefined) had an RP-LC retention time of 946 s. The same measure for `Cc1ccc(Sc2nccnc2N2CCC(C(=O)Nc3cccc(Br)c3)CC2)cc1`: 1260 s; for `O=C(Nc1nccs1)c1ccc2c(c1)CCCC2`: 869 s. The same measure for `COC(=O)C(C)(N)Cc1ccc(O)cc1` (centres undefined): 573 s; for `CCCN1C(=O)c2cc(S(=O)(=O)Nc3ccc(Cl)cc3)ccc2Oc2cccnc21`: 1110 s; for `COC(=O)c1cccc(C(=O)Nc2ccc(C)cc2Cl)n1`: 1100 s.

`Cc1cc(Cl)ccc1S(=O)(=O)N1CCCC1c1nncn1-c1ccccc1` (centres undefined): the RP-LC retention time worked out at 845 s. On to `CCOC(=O)N1CCN(c2c(N3CCN(c4ccccn4)CC3)c(=O)c2=O)CC1`, for which the RP-LC retention time amounted to 562 s. The same measure for `CCC(=O)N1CCc2cc(C(=O)NC)ccc21`: 626 s; for `Cc1c(Cl)cccc1Nc1c(-c2ccc(Cl)cc2)nc2ncccn12`: 992 s. For `Cc1ccc(NC(=O)N2CCC(n3cnnc3C3CC3)C2)cc1C` (centres undefined), the RP-LC retention time was determined as 665 s. The same measure for `Cc1ccc(S(=O)(=O)Nc2ccc(-c3cn4ccccc4n3)cc2)cc1[N+](=O)[O-]`: 662 s; for `COc1ccc(OC)c(S(=O)(=O)NCc2c(-c3ccccc3)nc3sc(C)nn23)c1`: 839 s; for `O=C(CN1CC=C(c2cnn(-c3ccccc3)c2)CC1)NCc1ccccn1`: 594 s. The same measure for `Cc1oc(-c2[nH]ncc2C(=O)N2CCCC2)cc1S(=O)(=O)Nc1ccc(C(C)C)cc1`: 835 s; for `CCCN1CCn2cc(S(=O)(=O)Nc3ccccc3C)cc2C1=O`: 746 s. In turn, `COc1ccc(NC(=O)N2[C@H]3CC[C@@H]2c2cncnc2C3)cc1OC` gave an RP-LC retention time of 839 s. The same measure for `COC(=O)c1cnc2nc(C)ccc2c1Nc1ccc2c(c1)OCCO2`: 652 s; for `O=C(c1ccsc1)N1[C@H]2CC[C@@H]1c1cnc(-c3ccc(F)cc3)nc1C2`: 952 s. The same measure for `Cc1nn2c(-n3ccnc3C)c3c(nc2c1-c1ccccc1)CCC3`: 606 s; for `COc1ccc(-c2noc(-c3nnn4c3COC(c3ccc(F)cc3)C4)n2)c(OC)c1` (centres undefined): 836 s; for `CCOc1ccccc1NS(=O)(=O)c1cc(-c2c(CC)noc2NC(C)=O)ccc1OC`: 840 s.

`Cc1ccc(-c2cc3n(n2)CCCN(C(=O)c2ccsc2)C3)cc1` returned an RP-LC retention time of 845 s. Compound `CCOc1ccc(-c2noc(CN3C(=O)COc4ccc(Cl)cc43)n2)cc1` had an RP-LC retention time of 1130 s. `CCCn1nnc2cc(-c3noc(COc4ccc(Cl)cc4)n3)ccc21` displayed an RP-LC retention time of 1120 s. `COc1cccc(NC(=O)CN2C(=O)C3CCCCN3c3ccc(S(=O)(=O)N(C)C)cc32)c1` (centres undefined) came in with an RP-LC retention time of 902 s.
